Source: patent US20260365646A1, “AKT1 MODULATORS” (Alterome Therapeutics, Inc., priority 2022, published 2026)
Read-outs that look alike come from different tables or passages of the source.

Target: T1, full length AKT E17K (Homo sapiens, UniProt P31749, E17K)
T1 construct: host or cells: HEK-293 (ATCC CRL-1573)
Experiment: NanoBRET Target Engagement (TE) Intracellular Kinase Assay
Assay type: cell-based
Source text: The NanoBRET™ Target Engagement (TE) Intracellular Kinase Assays are based on the NanoBRET™ System (Promega Corporation), an energy transfer technique designed to measure molecular proximity in living cells. The NanoBRET™ TE Assays measure the apparent affinity of test compounds by competitive displacement of the NanoBRET™ tracer compound, which is a cell permeable molecule engineered to be reversibly bound to a NanoLuc® luciferase-kinase fusion expressed in cells. For compound screening, when a test compound binds to the selected kinase, the BRET signal is attenuated. […] All cells were evaluated for viability prior to transfection and optimization of the transfection was done prior to experimentation. […] Following transfection, cells were washed and resuspended in Opti-MEM. NanoBRET assays were performed in white, 384-well plates (Corning) at a density of 2×10^5 cells/well. All example compounds were prepared as concentrated stock solutions in DMSO (Sigma-Aldrich). Compounds are dissolved in DMSO to make 10 mM stock solution. […] A Labcyte ECHO 550 compound dispenser was used to facilitate compound transfer directly to cells. Cells were equilibrated for 2 hr with energy transfer probes and example compound prior to BRET measurements. […] For target engagement analysis, the energy transfer probes were added to the cells at concentrations optimized for the target in question (AKT E17K). Following compound incubation, NanoBRET NanoGlo Substrate (Promega Cat #Ni57D) and Extracellular Nanoluc Inhibitor (Promega Cat #N235C) was added according to the manufacturer's recommended protocol, and luminescence was measured on Envision Reader (Perkin Elmer) Multimode Luminometer equipped with 450 nm BPfilter (donor) and 600 nm LPfilter (acceptor), using 0.5 s integration time. Milli-BRET units (mBU) are calculated by multiplying the raw BRET values by 1000. Apparent tracer affinity values (EC50) were determined using the sigmoidal dose-response (variable slope). Competitive displacement data were then plotted and data were fit to determine the EC50 value for each example compound.

[1] = read-out: NanoBRET AKT1E17K EC50, HEK-293 cells transfected with NanoLuc-AKT E17K, competitive displacement of NanoBRET tracer, 2 hr equilibration, 10-point 3-fold dilution

T1 sequence (P31749 whole entry E17K): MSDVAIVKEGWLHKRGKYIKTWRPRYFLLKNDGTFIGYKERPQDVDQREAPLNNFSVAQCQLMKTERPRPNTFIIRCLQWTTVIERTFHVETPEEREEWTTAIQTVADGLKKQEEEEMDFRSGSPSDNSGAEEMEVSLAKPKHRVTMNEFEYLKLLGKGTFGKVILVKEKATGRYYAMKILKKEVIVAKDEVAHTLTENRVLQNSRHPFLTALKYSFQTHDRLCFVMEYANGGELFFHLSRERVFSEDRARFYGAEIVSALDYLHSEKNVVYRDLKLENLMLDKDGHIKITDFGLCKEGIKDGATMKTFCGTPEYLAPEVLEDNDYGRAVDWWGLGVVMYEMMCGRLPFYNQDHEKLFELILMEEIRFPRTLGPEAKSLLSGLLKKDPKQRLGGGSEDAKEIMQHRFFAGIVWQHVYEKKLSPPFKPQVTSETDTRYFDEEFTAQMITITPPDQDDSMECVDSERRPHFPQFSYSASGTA

Row | EC50 | EC50 [1] | Structure (SMILES)
1 | > 600 nM |  | COc1c(N2CC3(CN(Cc4ccc(-n5c(-c6cccnc6N)nc6ccc(-c7ccccc7)nc65)cc4)C3)C2)c(=O)c1=O [Example 41, 3-(6-(4-(2-(2-Aminopyridin-3-yl)-5-phenyl-3H-imidazo[4,5-b]pyridin-3-yl)benzyl)-2,6-diazaspiro[3.3]heptan-2-yl)-4-methoxycyclobut-3-ene-1,2-dione]
2 | 15 to 60 nM |  | COc1c(N2CCC3(CCN(Cc4ccc(-n5c(-c6cccnc6N)nc6ccc(-c7ccccc7)nc65)cc4)CC3)C2)c(=O)c1=O [Example 54, 3-(8-(4-(2-(2-Aminopyridin-3-yl)-5-phenyl-3H-imidazo[4,5-b]pyridin-3-yl)benzyl)-2,8-diazaspiro[4.5]decan-2-yl)-4-methoxycyclobut-3-ene-1,2-dione]
3 | 60 to 600 nM |  | COc1c(N2CCCC3(CN(Cc4ccc(-n5c(-c6cccnc6N)nc6ccc(-c7ccccc7)nc65)cc4)C3)C2)c(=O)c1=O [Example 65, 3-(2-(4-(2-(2-aminopyridin-3-yl)-5-phenyl-3H-imidazo[4,5-b]pyridin-3-yl)benzyl)-2,6-diazaspiro[3.5]nonan-6-yl)-4-methoxycyclobut-3-ene-1,2-dione]
4 |  | < 15 nM | COc1c(N2CC3CCC(C2)N3Cc2ccc(-n3c(-c4cccnc4N)nc4ccc(-c5ccccc5)nc43)cc2)c(=O)c1=O [Example 71, 3-(8-(4-(2-(2-aminopyridin-3-yl)-5-phenyl-3H-imidazo[4,5-b]pyridin-3-yl)benzyl)-3,8-diazabicyclo[3.2.1]octan-3-yl)-4-methoxycyclobut-3-ene-1,2-dione]
5 | 15 to 60 nM |  | COc1c(NC2CCC3(CC2)CCN(Cc2ccc(-n4c(-c5cccnc5N)nc5ccc(-c6ccccc6)nc54)cc2)C3)c(=O)c1=O (centres unmarked) [Example 52, 3-((2-(4-(2-(2-Aminopyridin-3-yl)-5-phenyl-3H-imidazo[4,5-b]pyridin-3-yl)benzyl)-2-azaspiro[4.5]decan-8-yl)amino)-4-methoxycyclobut-3-ene-1,2-dione]
6 |  | < 15 nM | COc1c(N2CC3(CCN(Cc4ccc(-n5c(-c6cccnc6N)nc6ccc(-c7ccccc7)nc65)cc4)CC3)C2)c(=O)c1=O [Example 53, 3-(7-(4-(2-(2-Aminopyridin-3-yl)-5-phenyl-3H-imidazo[4,5-b]pyridin-3-yl)benzyl)-2,7-diazaspiro[3.5]nonan-2-yl)-4-methoxycyclobut-3-ene-1,2-dione]
7 | 15 to 60 nM |  | COc1c(N2CCN(Cc3ccc(-n4c(-c5cccnc5N)nc5ccc(-c6ccccc6)nc54)cc3)CC23CC3)c(=O)c1=O [Example 37, 3-(7-(4-(2-(2-Aminopyridin-3-yl)-5-phenyl-3H-imidazo[4,5-b]pyridin-3-yl)benzyl)-4,7-diazaspiro[2.5]octan-4-yl)-4-methoxycyclobut-3-ene-1,2-dione]
8 |  | < 15 nM | CSc1c(N2CCC3(CC2)CN(Cc2ccc(-n4c(-c5cccnc5N)nc5ccc(-c6ccccc6)nc54)cc2)C3)c(=O)c1=O [Example 64, 3-(2-(4-(2-(2-aminopyridin-3-yl)-5-phenyl-3H-imidazo[4,5-b]pyridin-3-yl)benzyl)-2,7-diazaspiro[3.5]nonan-7-yl)-4-(methylthio)cyclobut-3-ene-1,2-dione]

Second part, the compound before the results:

Row | Structure (SMILES) | EC50 | EC50 [1]
9 | CNc1c(NC2CCN(Cc3ccc(-n4c(-c5cccnc5N)nc5ccc(-c6ccccc6)nc54)cc3)CC2)c(=O)c1=O [Example 20, 3-((1-(4-(2-(2-Aminopyridin-3-yl)-5-phenyl-3H-imidazo[4,5-b]pyridin-3-yl)benzyl)piperidin-4-yl)amino)-4-(methylamino)cyclobut-3-ene-1,2-dione] | 60 to 600 nM | 
10 | COc1c(NC2CC3(CCN(Cc4ccc(-n5c(-c6cccnc6N)nc6ccc(-c7ccccc7)nc65)cc4)CC3)C2)c(=O)c1=O [Example 35, 3-((7-(4-(2-(2-Aminopyridin-3-yl)-5-phenyl-3H-imidazo[4,5-b]pyridin-3-yl)benzyl)-7-azaspiro[3.5]nonan-2-yl)amino)-4-methoxycyclobut-3-ene-1,2-dione] |  | < 15 nM
11 | CCN(c1c(OC)c(=O)c1=O)C1CCN(Cc2ccc(-n3c(-c4cccnc4N)nc4ccc(-c5ccccc5)nc43)cc2)CC1 [Example 91, 3-((1-(4-(2-(2-aminopyridin-3-yl)-5-phenyl-3H-imidazo[4,5-b]pyridin-3-yl)benzyl)piperidin-4-yl)(ethyl)amino)-4-methoxycyclobut-3-ene-1,2-dione] |  | < 15 nM
12 | Nc1ncccc1-c1nc2ccc(-c3ccccc3)nc2n1-c1ccc(CN2CCN(c3c(O)c(=O)c3=O)CC2)cc1 [Example 22, 3-(4-(4-(2-(2-Aminopyridin-3-yl)-5-phenyl-3H-imidazo[4,5-b]pyridin-3-yl)benzyl)piperazin-1-yl)-4-hydroxycyclobut-3-ene-1,2-dione] | > 600 nM | 
13 | Nc1ncccc1-c1nc2ccc(-c3ccccc3)nc2n1-c1ccc(CN2CCC(Nc3c(S)c(=O)c3=O)CC2)cc1 [Example 44, 3-((1-(4-(2-(2-aminopyridin-3-yl)-5-phenyl-3H-imidazo[4,5-b]pyridin-3-yl)benzyl)piperidin-4-yl)amino)-4-mercaptocyclobut-3-ene-1,2-dione] | 60 to 600 nM | 
14 | CCSc1c(N2C[C@H]3CN(Cc4ccc(-n5c(-c6cccnc6N)nc6ccc(-c7ccccc7)nc65)cc4)C[C@H]3C2)c(=O)c1=O [Example 88, 3-((3aR,6aS)-5-(4-(2-(2-aminopyridin-3-yl)-5-phenyl-3H-imidazo[4,5-b]pyridin-3-yl)benzyl)hexahydropyrrolo[3,4-c]pyrrol-2(1H)-yl)-4-(ethylthio)cyclobut-3-ene-1,2-dione] |  | < 15 nM
15 | COc1c(N2CCN(Cc3ccc(-n4c(-c5cccnc5N)nc5ccc(-c6cccc(NC(C)=O)c6)nc54)cc3)CC2)c(=O)c1=O [Example 7, N-(3-(2-(2-Aminopyridin-3-yl)-3-(4-((4-(2-methoxy-3,4-dioxocyclobut-1-en-1-yl)piperazin-1-yl)methyl)phenyl)-3H-imidazo[4,5-b]pyridin-5-yl)phenyl)acetamide] | 15 to 60 nM | 
16 | COc1c(N(C)C2CCN(Cc3ccc(-n4c(-c5cccnc5N)nc5cc(-c6ccccc6)cnc54)cc3)CC2)c(=O)c1=O [Example 32, 3-((1-(4-(2-(2-Aminopyridin-3-yl)-6-phenyl-3H-imidazo[4,5-b]pyridin-3-yl)benzyl)piperidin-4-yl)(methyl)amino)-4-methoxycyclobut-3-ene-1,2-dione] | 60 to 600 nM | 
17 | Nc1ncccc1-c1nc2ccc(-c3ccccc3)nc2n1-c1ccc(CNc2c(O)c(=O)c2=O)cc1 [Example 5, 3-((4-(2-(2-Aminopyridin-3-yl)-5-phenyl-3H-imidazo[4,5-b]pyridin-3-yl)benzyl)amino)-4-hydroxycyclobut-3-ene-1,2-dione] | > 600 nM | 
18 | COc1c(N[C@H]2CCCN(Cc3ccc(-n4c(-c5cccnc5N)nc5ccc(-c6ccccc6)nc54)cc3)C2)c(=O)c1=O [Example 29, (S)-3-((1-(4-(2-(2-Aminopyridin-3-yl)-5-phenyl-3H-imidazo[4,5-b]pyridin-3-yl)benzyl)piperidin-3-yl)amino)-4-methoxycyclobut-3-ene-1,2-dione] | 60 to 600 nM | 
19 | Nc1ncccc1-c1nc2ccc(-c3ccccc3)nc2n1-c1ccc(CNC(=O)c2cccc(Nc3c(O)c(=O)c3=O)c2)cc1 [Example 43, N-(4-(2-(2-Aminopyridin-3-yl)-5-phenyl-3H-imidazo[4,5-b]pyridin-3-yl)benzyl)-3-((2-hydroxy-3,4-dioxocyclobut-1-en-1-yl)amino)benzamide] | > 600 nM | 
20 | Nc1ncccc1-c1nc2ccc(-c3ccccc3)nc2n1-c1ccc(CN2CCN(c3c(OC4CCCC4)c(=O)c3=O)CC2)cc1 [Example 26, 3-(4-(4-(2-(2-aminopyridin-3-yl)-5-phenyl-3H-imidazo[4,5-b]pyridin-3-yl)benzyl)piperazin-1-yl)-4-(cyclopentyloxy)cyclobut-3-ene-1,2-dione] | > 600 nM | 
21 | COc1c(NC2CCN(Cc3ccc(-n4c(-c5cccnc5N)nc5ccc(-c6cccc(NC(C)=O)c6)nc54)cc3)CC2)c(=O)c1=O [Example 8, N-(3-(2-(2-Aminopyridin-3-yl)-3-(4-((4-((2-methoxy-3,4-dioxocyclobut-1-en-1-yl)amino)piperidin-1-yl)methyl)phenyl)-3H-imidazo[4,5-b]pyridin-5-yl)phenyl)acetamide] |  | < 15 nM
22 | CCSc1c(NC2CCN(Cc3ccc(-n4c(-c5cccnc5N)nc5ccc(-c6ccccc6)nc54)cc3)CC2)c(=O)c1=O [Example 39, 3-((1-(4-(2-(2-Aminopyridin-3-yl)-5-phenyl-3H-imidazo[4,5-b]pyridin-3-yl)benzyl)piperidin-4-yl)amino)-4-(ethylthio)cyclobut-3-ene-1,2-dione] |  | < 15 nM
23 | COc1c(NN2CCN(Cc3ccc(-n4c(-c5cccnc5N)nc5ccc(-c6ccccc6)nc54)cc3)CC2)c(=O)c1=O [Example 83, 3-((4-(4-(2-(2-aminopyridin-3-yl)-5-phenyl-3H-imidazo[4,5-b]pyridin-3-yl)benzyl)piperazin-1-yl)amino)-4-methoxycyclobut-3-ene-1,2-dione] |  | < 15 nM
